Assay: Tapped density of bulk powder
Format: physicochemical
Description: “Tapped densities” or ρtapped as used herein were measured in a fashion similar to Method I, as described in USP <616> Bulk Density and Tapped Density of Powders. Tapped densities represent a closer approximation to particle density than poured bulk densities, with measured values that are approximately 20% less than the actual particle density.
Tapped density was determined using a cylindrical cavity of known volume (0.593 cm^3). Powder was filled into this sample holder using a microspatula. The sample cell was then gently tapped on a countertop. As the sample volume decreased, more powder was added to the cell. The tapping and addition of powder steps were repeated until the cavity was filled and the powder bed no longer consolidated with further tapping. The tapped density is defined as the mass of this tapped bed of powder divided by the volume of the cavity.

Row | Compound | Tapped density [g/mL]
1 | CC(C)C(=O)OCC(=O)[C@@]12O[C@H](C3CCCCC3)O[C@@H]1C[C@H]1[C@@H]3CCC4=CC(=O)C=C[C@]4(C)[C@H]3[C@@H](O)C[C@@]12C [Cic-B, ciclesonide] | 0.16
2 | CC(C)C(=O)OCC(=O)[C@@]12O[C@H](C3CCCCC3)O[C@@H]1C[C@H]1[C@@H]3CCC4=CC(=O)C=C[C@]4(C)[C@H]3[C@@H](O)C[C@@]12C [Cic-A, ciclesonide] | 0.17

From patent US20220296521A1, “CARRIER-BASED FORMULATIONS AND RELATED METHODS” (Respira Therapeutics, Inc., priority 2019, published 2022)
